Measured values reported in patent US9676997B2, “Compositions and methods for stabilizing luminogenic substrates” (Promega Corporation, priority 2014, dated 2017).

How the values were obtained:
[1] = Stability of 2.3 mM furimazine at 37° C. in the dark with or without 200 mM thionucleoside, luminescence with NANOLUC enzyme; format: physicochemical; conditions: 50% propylene glycol:50% ethanol
Description: Specifically, a stock solution of furimazine in 50% propylene glycol:50% ethanol (v/v) was prepared, in which the final concentration of furimazine by absorbance was 4.6 mM. The furimazine stock solution was then diluted 1:1 in 50% propylene glycol:50% ethanol (v/v) to create a control solution without the additives ATT, TAK-0014 and TAK-0002 (i.e., “no additive furimazine” control) and containing 2.3 mM furimazine. 400 mM stock solutions of ATT, TAK-0014 and TAK-0002 were prepared in 50% propylene glycol:50% ethanol (v/v). Each of the ATT, TAK-0014 and TAK-0002 stock solutions was then diluted 1:1 in the 4.6 mM furimazine stock solution to yield solutions containing 200 mM ATT, TAK-0014 or TAK-0002, and 2.3 mM furimazine.
Each sample was separated into multiple amber tubes and incubated at 37° C. in a dark incubator (i.e., in the absence of light). Aliquots were taken from each sample at various time points and stored at −20° C. in the dark (i.e., in the absence of light) until all time points were collected.
To measure luminescence in the aliquots, each aliquot was diluted 1:50 in buffer (NANOGLO buffer, Promega Corporation) to yield 46 μM furimazine. These diluted aliquots were further diluted 1:10 in buffer (NANOGLO buffer, Promega Corporation) to yield 4.6 μM furimazine. 504 of each dilution (i.e., the twice diluted (0.1) aliquots) was mixed with 504, of CO2-independent media+10% fetal bovine serum (FBS) and 0.4 ng/mL luminogenic enzyme (NANOLUC enzyme, Promega Corporation). Luminescence was measured on a luminometer (GLOMAX Multi Plus luminometer, Promega Corporation). Relative light units (RLUs) were normalized for each time point by the RLU value at the 0 days time point. The percent activity from the 0 days time point (i.e., t=0) was plotted against time (days) for each sample as shown in FIG. 15A. In FIG. 15A, B-ATT denoted TAK-0002 and E-ATT denoted TAK-0014.
Error in Table 15 was the standard error from a regression calculation and Fz denoted furimazine, B-ATT denoted TAK-0002, and E-ATT denoted TAK-0014.

[2] = Stability of 1.25 mM coelenterazine-h in 50% ethanol and 50% propylene glycol with or without 225 mM ATT, HPLC and Arrhenius plots; format: physicochemical; conditions: 225 mM ATT, over time at different temperatures
Description: The stability of coelenterazine-h in the presence and absence of ATT was measured over time at different temperatures. Specifically, 1.25 mM coelenterazine-h was present in a solution of 50% ethanol and 50% propylene glycol (i.e., the solution without ATT) or a solution of 50% ethanol and 50% propylene glycol with 225 mM ATT (i.e., the solution with ATT). These two solutions were incubated at −20° C., room temperature (RT), 40° C., or 60° C. and analyzed at for 0 days, 1 day, 3 days, 7 days, 15 days, and 30 days.
Following incubation, high performance liquid chromatography (HPLC) was utilized to identify the components of the respective solutions at each time point. Specifically, an Agilent 1100 HPLC instrument was used and equipped with a quaternary pump, thermostatted autosampler and column compartment, and a G1311B diode-array detector. The column used was a Synergi-MAX-RP (Phenomenex, Torrance, Calif.) 100 AÅ 50×4.6 2.5 μm. The run on the HPLC was a gradient run with 0.1% TFA in water and acetonitrile. Absorbance was measured at 262 nanometers (nm). Standards of coelenterazine-h and its known degradants were run to confirm both the retention time and absorbance trace. 5 μl of each solution was injected and the retention time of coelenterazine-h was 4.7 minutes at room temperature.
The results of the HPLC analysis are shown below in Tables 4 and 5 and FIGS. 2A and 2B, in which the values are reported as relative peak area percentage at 262 nm (i.e., the lamba max of the substrate). […] In each of FIGS. 2A and 2B, diamond is 1.25 mM coelenterazine-h incubated over time with or without 225 mM ATT, respectively, at −20° C., triangle is 1.25 mM coelenterazine-h incubated over time with or without 225 mM ATT, respectively, at room temperature (RT), star is 1.25 mM coelenterazine-h incubated over time with or without 225 mM ATT, respectively, at 40° C., and cross is 1.25 mM coelenterazine-h incubated over time with or without 225 mM ATT, respectively, at 60° C.
From the HPLC analysis, the half-life of coelenterazine-h in the presence of ATT at 40° C. and 60° C. was calculated to be 20 days and 5 days, respectively, while the half-life of coelenterazine-h in the absence of ATT at 20° C., 40° C. and 60° C. was calculated to be 24 days, 7.5 days and 2 days, respectively (see Table 6 below).
Additionally, Arrhenius plots were generated for coelenterazine-h in the presence and absence of ATT to calculate the half-life of coelenterazine-h at various temperatures. The Arrhenius equation is as follows: […]
In FIG. 9, the slope was −8131.2, the intercept was 22.6157, and R^2 was 0.9994.
In FIG. 10, the slope was −7310.53, the intercept was 21.4386, and R^2 was 0.9964.

SMILES: Cc1n[nH]c(=S)[nH]c1=O [ATT, 6-methyl-3-thioxo-3,4-dihydro-1,2,4-triazin-5(2H)-one]
- stabilization of furimazine against decomposition in the absence of light [1]: stabilized furimazine against decomposition in the absence of light
- stabilization of coelenterazine-h against decomposition [2]: stabilized coelenterazine-h against decomposition over time at different temperatures
